Experiments:
[1] = test system: silenced telomeric URA3 gene; assay: URA3 telomeric silencing assay (cell-based screen for Sir2p inhibitors); design: species or system S. cerevisiae
Protocol: In order to find inhibitors of the deacetylase activity of Sir2p, screening was carried out to identify compounds that perturbed silencing at each of the loci at which Sir2p is known to act in S. cerevisiae: telomeres, HML, HMR, and the rDNA. The cell-based positive selection screen was designed so that inhibition of Sir2p activity permitted normal cell growth in order to avoid identifying cytotoxic compounds. Briefly, a yeast strain containing a marker gene, such as a nutritional marker, in close proximity to a telomeres in S. cerevisiae such that it is repressed by telomeric chromatin, is exposed to a test compound or set of test compounds dissolved in DMSO and cultured under suitable conditions and in media supplemented to permit growth only under conditions in which the marker gene is expressed. After a suitable interval, the optical density of the culture is measured. An increase in optical density corresponds to growth indicating a perturbation of silencing of the marker gene. All strains in this and other examples herein can be grown in synthetic complete media (SC) or selective synthetic drop-out media containing 2% glucose.
Initial screening for compounds that effect silencing was carried out using a URA3 assay. […] Eleven compounds identified in this primary screen were analyzed further to determine whether silencing at the HML and HMR loci was also affected.

[2] = test system: TRP1 gene integrated at the silent HMR locus; assay: TRP1 reporter at silent HMR locus growth assay; assay type: cell-based, S. cerevisiae; conditions: tryptophan-deficient media, 36-48 h
Protocol: A secondary screening of the eleven identified compounds was carried out using a TRP1 gene which utilized a yeast strain with a TRP1 gene integrated at the silent HMR locus cannot grow in media lacking tryptophan (Buck, S. W. & Shore, D. (1995) Genes Dev. 9, 370-84). Using the method essentially described above, wells in a 96-well plate were inoculated with 150 μL of yeast culture (a yeast strain with a TRP1 gene integrated at the silent HMR locus), containing 1×10^5 cell/ml in tryptophan-deficient media. The eleven compounds dissolved in DMSO were added to the cells and the cultures are incubated for 36-48 h and growth in individual wells is tested by optical density (OD660) measurements and visual inspection.

HMLα locus in MATa cells = assay: Pheromone response assay, silencing at the HMLα locus in MATa cells; assay type: cell-based, S. cerevisiae
Source text: When haploid MATa cells are exposed to the mating pheromone […], they arrest in G1 phase of the cell cycle. Loss of silencing at the HMLα locus in MATa cells results in expression of a mating type genes (Marsh, L., et al. (1991) Annu. Rev. Cell Biol. 7, 699-728). The coexpression of α and a genes creates a pseudo-diploid state: cells are immune to […] and unable to mate.

rDNA locus = assay: Recombination at the rDNA locus (loss of ADE2 integrated into the rDNA array); assay type: cell-based, S. cerevisiae
Protocol: Silencing within the rDNA locus is manifested in two ways. It can weakly repress expression of an inserted reporter gene (Smith, J. S. & Boeke, J. D. (1997) Genes Dev. 11, 241-54), and it reduces recombination between tandem copies of the ribosomal RNA genes (Gottlieb, S. & Esposito, R. E. (1989) Cell 56, 771-6). Recombination was analyzed by measuring the loss rate of an ADE2 gene integrated into the rDNA array essentially as described by Kaeberlein, M., et al. (1999 Genes Dev. 13, 2570-80). […] After six hours, the cultures were plated onto rich medium and the loss of expression of the ADE2 gene was measured and scored by the development of sectored red colonies. […] Treatment with SI increased recombination rate at the rDNA locus seven-fold, which is similar to rates observed in a sir2 mutant (FIG. 1D).

[3] = test system: wild type BY4741 cells vs sir2, hst1, hst2, hst3, hst4 deletion mutants; assay: Whole genome DNA microarray transcriptional profiling; assay type: cell-based, S. cerevisiae
Source text: In addition to SIR2, the S. cerevisiae genome encodes four SIR2 homologues: HST1-4 (Homologue of Sir Two) (Brachmann, C. B., et al. (1995) Genes Dev. 9, 2888-902). Hst2p is located in the cytoplasm and is responsible for virtually all the NAD^+-dependent deacetylase activity detected in a cellular lysate (Smith, J. S., et al., (2000) Proc. Natl. Acad. Sci. USA 97, 6658-63). Its relevant biological substrate is unknown. Hst1p is required for transcriptional repression of meiotic genes (Xie, J., et al. (1999) EMBO J. 18, 6448-54), whereas little is known about the cellular function of Hst3p or Hst4p.
Strains for the DNA array experiments for the whole genome analysis were obtained from Research Genetics (wild type BY4741: MATa his3, leu2, met15, […] or isogenic sir2, hst1, hst2, hst3 and hst4 deletion mutants). Several colonies from fresh cultures were inoculated into synthetic complete medium with 2% glucose, grown overnight at 30° C., diluted to 0.5−1×10^6 cell/ml and grown for an additional 6-9 hours until reaching a density of 0.5−1×10^7 cells/ml. […] Total RNA was extracted using the hot acid phenol method. Microarray construction and hybridization protocols were modified from those described elsewhere (DeRisi, J. L. et al. (1997) Science 278, 680-6). Briefly, yeast microarrays were constructed employing a set of ˜6200 or specific PCR primer pairs (Research Genetics, Huntsville, Ala.), which were used to amplify each open reading frame (orf) of the yeast genome. Individual PCR products were verified as unique via gel electrophoresis and purified using ARRAYIT 96-well PCR purification kits (TeleChem International, Sunnyvale, Calif.). Purified PCR products were mechanically “spotted” in 3×SSC (450 mM sodium chloride and 45 mM sodium citrate, pH 7.0) onto poly-lysine coated microscope slides using an OMNIGRID high-precision robotic gridder (GeneMachines, San Carlo, Calif.). […]

[4] = test system: mutant SIR2 (GAL-SIR2-Y298N or GAL-SIR2-H286Q); assay: HDA assay with drug resistant mutant Sir2p; assay type: biochemical, S. cerevisiae; conditions: in vitro, equivalent amounts of protein
Protocol: Briefly, histone H4 was chemically acetylated using the HDAC Assay Kit (Upstate Biotechnology). […] For the histone deacetylase assays, 50 μg of yeast whole-cell protein extract was incubated with [^3H] acetylated histone H4-peptide (40,000 cpm) with or without 500 μM NAD^+ in a 100 μl reaction. The buffer contained 150 mM NaCl, 25 mM sodium phosphate pH 7.4 and 1 mM DTT. Reactions were incubated at 30° C. for 16 hours and were stopped by the addition of 25 μl of 1 N HCl and 0.15 N acetic acid. Released [^3H] acetate was extracted with 400 μl of ethyl acetate.
To obtain further insight into the molecular mechanism by which S I inhibited deacetylase activity of Sir2p, mutant forms of Sir2p were generated that were resistant to the compound. […] Plasmid DNA was recovered from the individual colonies and was retransformed into the test strain to assure that drug resistance was conferred by SIR2-containing plasmid.

[5] = test system: silent HML locus in G1-arrested MATa cells; assay: Maintenance of silent state in G1-arrested MATa cells; assay type: cell-based, S. cerevisiae
Source text: This was presumably due to loss of mating competence, a consequence of expression of the α2 gene from the “silent” HML locus. To test this idea more directly, a MATa strain with a single G1 cyclin gene (CLN3), which is under control of a galactose-inducible promoter (Cross, F. R. (1990) Mol. Cell Biol. 10, 6482-90), was arrested in G1 by replacing galactose with glucose in the media.

Rat1a cells = assay: Sensitization to etoposide, 3H-thymidine incorporation viability; assay type: cell-based, rat; conditions: S1 25, 50 and 100 μM with etoposide, 72 hours
Protocol: (§1) To test whether S1 could sensitize cells to DNA damage, mammalian cells were exposed to etoposide, a DNA damaging agent, in the presence and absence of S1. […] Viability of cells was assessed with 3H-thymidine incorporation.

[6] = test system: primary human fibroblasts (HFF); assay: as above; assay type: cell-based; conditions: S1 25, 50 and 100 μM with etoposide, 72 hours
Protocol: as §1

mammalian cells = assay: Toxicity assays using S1 and a variety of DNA damaging agents; assay type: cell-based
Source text: (1996) Science 272, 408-11)). In addition to histones, many other proteins are regulated by acetylation, including pRb, E2F and p53 proteins (Chan, H. M., et al. (2001) Nat. Cell Biol. 3,667-74; Martinez-Balbas, M. A., et al. (2000) EMBO J. 19,662-71; and Luo, J., et al. (2000) Nature 408, 377-81). Two recent reports (Vaziri, H., et al. (2001) Cell 107, 149-159 and Luo, J., et al. (2001) Cell 107, 137-148) implicate deacetylation of p53, by Sir2, in down-regulation of transcriptional and proapoptotic activities of p53 in response to DNA damage. […] P. (2001) Oncogene 20, 2988-90 and Tycko, […]. Clin. Invest 105, 245-6).

[7] = 50 μg/ml cycloheximide 40 minutes prior to S1

## O=C1CCc2c(ccc3ccccc23)O1 [S1, 1,2-dihydro-3H-naphtho[2,1-b]pyran-3-one]
[1]; SIR2-H286Q, SIR2-L287Q, SIR2-Y298N
  disruption of silencing in drug resistant SIR2 mutants vs wild type strains: required higher concentrations
[1]; URA3 telomeric marker, uracil-deficient media, 0.5, 5 and 50 μM, 36-48 h
  silencing at telomeric loci: disrupted silencing
[2]
  growth in media lacking tryptophan (loss of silencing at HMR): enabled cells to grow in media lacking tryptophan
HMLα locus in MATa cells
  silencing at HML: disrupted silencing at HML
HMLα locus in MATa cells; in the presence of S1
  mating of MATa cells: defective for mating
  responsiveness of MATa cells to α factor: lost responsiveness to α factor
rDNA locus
  silencing of a reporter gene within the rDNA locus: disrupted silencing
rDNA locus; 15 μM, six hours, similar to rates in a sir2 mutant
  increase of recombination rate at the rDNA locus: seven-fold
rDNA locus; sir2 cells treated with the compound
  effect on rDNA recombination in sir2 cells: no effect
[3]
  overlap with HST2, HST3 or HST4 regulated genes: no overlap
[3]; [7]
  transcriptional down-regulation by S1 in the absence of new protein synthesis: virtually all transcriptional down-regulation was abolished
  upregulation of genes by S1 with cycloheximide: did not affect
[4]
  inhibitory effect on histone deacetylase activity of mutant proteins vs wild type Sir2p: increased resistance
[5]; CLN3 galactose-inducible strain arrested by glucose, DMSO control
  α2 mRNA expression from HML in G1-arrested cells: detected only in the S1-treated cells
[5]; untreated cells remained arrested in G1
  cell cycle progression of α factor G1-arrested MATa cells: progressed through the cell cycle
Rat1a cells
  sensitization to etoposide: dose-dependent sensitization
[6]
  sensitization to etoposide: dose-dependent sensitization
Mammalian cells
  sensitization to DNA damaging agents: sensitizes mammalian cells
